Key:
[1] = test system: eIF4E cap-dependent protein synthesis in the CD4+ T cell compartment; assay: SUnSET protein synthesis assay in CD4+ T cells of mice dosed with 4EGI-1; type: in vivo, mouse; settings: 25 mg/kg daily
Description: Determination of eIF4E activity in vivo should compare untreated to treated animals. Specimens may include single-cell suspensions of splenocytes isolated using Percoll gradient purification followed by plating in X-VIVO media (Lonza) containing 5% human AB serum (Sigma) and Glutamax at 37° C. for one hour and subjected to SuNSET assay for 10 minutes to determine active protein synthesis rates according to manufacturer instructions (AG Scientific) and shown in FIGS. 10A and 14B.
Mice were immunized with 100 μg OVA/Alum and 7 days following, spleens were harvested and single-cell suspensions were generated. Splenocytes were incubated in mouse T cell media (detailed in Silencing of eIF4E in OT2 T cells by lentivirus transduction) with 0-25 μM 4EGI-1 for 4 hours at 37° C. Cells were stained with a live/dead viability marker and then for extracellular expression of CD4, CXCR5, PD-1, or ICOS or intranuclear expression of BCL6. For the SuNSET assay, cells from above were incubated 37° C. with 10 μg/mL puromycin for 10 minutes. Control samples were incubated with puromycin and 100 μg/mL cycloheximide. Cells were incubated with a live/dead viability marker and extracellular stain prior to fixation and permeabilization (BD Biosciences Fixation/Permeabilization Solution) and intracellular staining with anti-puromycin followed by anti-mouse IgG2a antibody conjugated to Alexa Fluor 488.

TFH cells = assay: OVA/Alum immunization with 4EGI-1 throughout the response; type: in vivo, mouse
Description: Single cell suspensions were stained with a viability marker diluted 1:1000 in PBS for 10 minutes, washed in PBS, and stained with antibodies to specific cell surface markers. Viability dye, antibody clones, and dilutions used to identify these populations are detailed in Table 2. Identification of cellular subsets in mice is detailed in FIGS. 1A-1N, 3A-3C, and 6A-6C). In brief, the following gating strategy was used to identify mouse TFH cells (CD4^+ PD1^+ CXCR5^+), TFR cells (CD4^+ PD1^+ CXCR5^+ Foxp3^+), IL-21^+ CD4^+ T cells (CD4^+ VFP^3+), IL-4^+ CD4^+ T cells (CD4^+ GFP^+) OT2 T cells (CD4^+ CD45.2^+ Vβ5^+), OT2 TFH cells (CD4^+ CD45.2^+ Vβ5^+ PD1^+ CXCR5^+), 2D2 T cells (CD4^+ CD45.2^+ Vα3.2^+), TFH-like 2D2 T cells (CD4^+ CD45.2^+ […]), plasma cells (B220^− CD138^+), plasmablasts (B220^mid CD138^+), GC B cells (B220^+ GL7^+ Fas^+), Light zone GC B cells (B220^+ GL7^+ Fas^+ CD86^+), dark zone GC B cells (B220^+ GL7^+ Fas^+ CXCR4^+), IgG1 switched GC B cells (B220^+ GL7^+ Fas^+ IgG1^+), OVA-specific GC B cells (B220^+ GL7^+ Fas^+ OVA-647^+), skin neutrophils (Ly6G^+ CD11b^+), lung eosinophils (SiglecF^+CD11c^−), brain and SC CD4^+ T cells (CD45^+ CD4^+). CD4^+ T cell expression of surface ICOS, PD-1, CXCR5, CD28, SLAM, OX-40 and intranuclear BCL6 was also determined. All flow cytometry procedures were performed on a ZE5 Cell Analyzed (Bio-Rad) and analyzed using FlowJo software (TreeStar).
OVA protein (Sigma A5503) was diluted in PBS and then in 20 mg/mL Imject Alum (ThermoFisher 77161) and mixed at room temperature for 30 minutes prior to i.p. injection of 100 μg OVA in 200 μL. When stated, mice were treated i.p. daily from day 0 to 6 or day 0 to 13 (just for TFR analysis) following OVA/Alum immunization with 25 mg/kg 4EGI-1 (MedChemExpress) or from day 7 to 13 following OVA/Alum immunization with 50 mg/kg or 75 mg/kg 4EGI-1. Vehicle control mice were administered 6 μL DMSO in 194 μL PBS i.p.
Spleens from OVA/Alum immunized mice treated with vehicle or 4EGI-1 were harvested, embedded in OCT, and frozen immediately on dry ice. Five-micron thick cryosections were cut and fixed in acetone for 10 min. Slides were blocked with 1% BSA and stained with anti-CD4 conjugated to Alexa Fluor 647 and anti-B220 Alexa Fluor 555. Antibody clones are detailed in Table 2. Following 3 washes with PBS, slides were mounted with DAPI fluoromount (VECTASHIELD) and sealed with clear nail polish. Staining was visualized and tiled using a Zeiss 700 laser scanning inverted confocal microscope.
B cell (Alexa fluor 555) and CD4^+ T cell (Alexa fluor 647) channels were split using FIJI, and B cell zones were manually outlined. This outline was overlaid upon the CD4^+ T cell stain and intensity of CD4^+ T cell staining within these zones was measured using FIJI and normalized to a fixed area of 500 microns
PVDF-coated 96-well plates (Millipore) were activated with methanol for 2 minutes, washed with PBS, and coated with 4 μg/mL OVA overnight at 4° C. Plates were blocked with 1% BSA for 2 hours at 37° C. prior to incubation with 1×10^7 splenocytes in RPMI containing 2% Ultra-low IgG FCS, 55 μM 2ME, and 100 U/mL penicillin and 100 μg/mL streptomycin in the top well. Cells were diluted by 1/2 each row going down the plate and incubated immobile overnight at 37° C. Plates were washed with water+0.05% Tween 20 for 5 min prior to 3 washes in PBS+0.05% Tween-20 for 10 minutes. Plates were incubated with 1:1000 HRP-coupled goat anti-mouse IgG1 antibody (Southern Biotech) in PBS+0.05% Tween 20 for 2 h prior to 3 washes in PBS+0.05% Tween 20 and incubation in tetramethylbenzidine (TMB) ELISA substrate buffer (ThermoFisher). Plates were washed once in distilled deionized water and spots were manually enumerated and antibody-secreting cells (ASC) per million splenocytes was determined.
For quantification of OVA-specific IgG1, high-binding 96-well plates (Costar) were coated with 10 μg/mL OVA protein. […]

pre-existing TFH cells = settings: 75 mg/kg, mice (Sekiyama et al.); cited from earlier work
[2] = cytokine reporter mice, OVA-Alum immunization

SMILES: O=C(O)C(Cc1ccccc1[N+](=O)[O-])=NNc1nc(-c2ccc(Cl)c(Cl)c2)cs1 (mixture of isomers) [4EGI-1]
- tolerability ([1]; mice): well tolerated
- inhibition of eIF4E cap-dependent protein synthesis in the CD4+ T cell compartment ([1]; uninfected mice, SUnSET (FIG. 1A)): approximately 30%
- reduction of TFH cells in spleen (TFH cells; 25 mg/kg daily, OVA/Alum, day 7): 3.5 fold
- overall CD4+ T cell numbers (TFH cells; 25 mg/kg daily, OVA/Alum, spleen, day 7): did not alter
- CD4+ T cell activation (CD44high) (TFH cells; 25 mg/kg daily, OVA/alum): did not affect
- CD4+ T cell division (TFH cells; 25 mg/kg daily, OVA/alum): did not affect
- CD4+ T cell expression of CD28 (TFH cells; 25 mg/kg daily, OVA/alum): decreased by half
- CD4+ T cell expression of OX40 (TFH cells; 25 mg/kg daily, OVA/alum): not affected
- CD4+ T cell expression of SLAM (TFH cells; 25 mg/kg daily, OVA/alum): decreased by half
- levels of expression of ICOS on CD4+ T cells (TFH cells; 25 mg/kg daily, OVA/alum): did not affect
- reduction of expression of PD-1 on splenic CD4+ T cells (TFH cells; 25 mg/kg daily, OVA/alum): more than half
- reduction of expression of intranuclear BCL6 in splenic CD4+ T cells (TFH cells; 25 mg/kg daily, OVA/alum): more than half
- reduction of expression of surface CXCR5 on splenic CD4+ T cells (TFH cells; 25 mg/kg daily, OVA/alum): more than half
- infiltration of CD4+ T cells in B cell zones (TFH cells; 25 mg/kg daily, OVA/alum, splenic sections): almost abolished
- reduction of TFR cells (TFH cells; 4EGI-1 for 14 days, measured at day 14, OVA/Alum): 3 fold
- serum OVA-specific IgG1 antibody (TFH cells; OVA/Alum, ELISA): reduced by half
- OVA-specific IgG1 antibody secreting cells (ASCs) (TFH cells; OVA/Alum, ELISPOT, splenocytes): almost abolished
- decrease of GC B cells in the CD86+ light zone (LZ) (TFH cells; OVA/Alum, spleen, day 7): 3 fold
- decrease of GC B cells in the CXCR4+ dark zone (DZ) (TFH cells; OVA/Alum, spleen, day 7): 3 fold
- decrease of GC B cells that are class switched IgG1+ (TFH cells; OVA/Alum, spleen, day 7): 3 fold
- decrease of OVA-specific GC B cells (TFH cells; OVA/Alum, spleen, day 7): 3 fold
- decrease of number of total GC B cells (TFH cells; OVA/Alum, spleen, day 7): 3 fold
- reduction of number of total plasma cells (TFH cells; OVA/Alum, spleen, day 7): 2 fold
- reduction of number of total plasmablasts (TFH cells; OVA/Alum, spleen, day 7): 2 fold
- decrease of total number of CD4+ T cells producing IL-4 (GFP+) in the spleen (TFH cells; [2]): 2.5 fold
- decrease of total number of CD4+ T cells producing IL-21 (VFP+) in the spleen (TFH cells; [2]): 2.5 fold
- safety of the dose (pre-existing TFH cells): within its safety range

— patent publication US12168003B2, “Selective inhibition of T follicular helper cells for treatment of autoimmune disorders” (priority 2019, dated 2024)
